Where no end group is shown, it is not given here.
Assays:
IL-13 = assay: Ovalbumin-induced IL-13 production by splenocytes from ovalbumin-sensitized mice (ELISA); assay type: cell-based, BALB/c mice; settings: ovalbumin 100 μg/mL + 100 μM peptide added daily, four days; ovalbumin alone 2585.4 ± 165.7
Description: Splenocytes from ovalbumin-sensitized mice were cultured for four days with no antigen, with ovalbumin alone, or with ovalbumin plus the STAT-6-IP or a STAT-6 Tyr-641 mutant (STAT-6-CP; Tyr-Ala-Arg-Ala-Ala-Ala-Arg-Gln-Ala-Arg-Ala-Gly-Arg-Gly-Phe-Val-Ser-Thr-Thr; SEQ ID NO:8). The STAT-6-IP and STAT-6-CP were added to splenocyte cultures daily. Treatment with the STAT-6-IP, but not the STAT-6-CP, reduced the supernatant levels of both IL-4 and IL-13 (Table 3).
BALB/c mice were sensitized systemically by two weekly i.p. injections of 0.025% ovalbumin mixed with 4 mg/mL Al(OH)3. One week after the second sensitization, mice were sacrificed and spleens harvested. A single cell suspension of splenocytes (5×10^6 cells/mL) was cultured in RPMI-1640 medium containing 10% heat-inactivated fetal bovine serum and 2 mM L-glutamine, 50 μM 2-mercaptoethanol, 100 U/mL penicillin, and 100 μg/mL streptomycin sulfate. Splenocytes were cultured for four days in the presence or absence of 100 μg/mL ovalbumin, either alone or with 100 μM STAT-6-IP or STAT-6-CP, which were added daily. After four days, culture supernatants were harvested to quantify cytokine production by ELISA. […] Cytokine expression was monitored by flow cytometry and analyzed using CELLQUEST™ software (Becton Dickinson). […]

IL-13 mRNA = assay: Semiquantitative RT-PCR of IL-13 mRNA in splenocytes; assay type: cell-based, BALB/c mice; settings: splenocytes cultured with ovalbumin plus peptide
Description: The levels of mRNA encoding IL-4, IL-13 and IFN-gamma were also evaluated by semiquantitative RT-PCR analysis. Ovalbumin-induced expression of both IL-4 and IL-13 mRNA was inhibited in splenocytes cultured with the STAT-6-IP and not the STAT-6-CP. […] The number of CD4+ T cells producing IL-4 was also quantified by intracellular cytokine staining. When splenocytes from ovalbumin-sensitized mice were cultured with ovalbumin, there was a significant increase in the number of CD4+ lymphocytes expressing IL-4 (Table 4). The increase in IL-4 expression was abrogated in splenocytes cultured with ovalbumin in the presence of the STAT-6-IP, while the STAT-6-CP had no effect.
Reverse transcriptase (RT)-PCR was used to monitor expression of mRNAs encoding IL-4, IL-13 and IFN-gamma. Materials for RNA extraction and RT-PCR were purchased from INVITROGEN™ Canada (Burlington, Ontario). Total RNA was extracted from splenocytes, treated with DNAse, and 1 μg of RNA was reverse transcribed into cDNA using SUPERSCRIPT™ II reverse transcriptase. […] PCR products were resolved by gel electrophoresis and visualized and quantified on a FLUORCHEM™ 8000 Imaging System (Alpha Innotech, San Leandro, Calif.) using ALPHAEASE™ software (Alpha Innotech). […]

YARAAARQARAGRGFVSTT [STAT-6-CP, STAT-6 Tyr-641 mutant, control peptide]
IL-13 (pg/mL ± SEM), culture supernatant (IL-13): 2136.2 ± 94.7 pg/mL
Inhibition of ovalbumin-induced expression of IL-13 mRNA (IL-13 mRNA): not
